Laboratory results from article PMC10108347, “Heterobifunctional Ligase Recruiters Enable pan-Degradation of Inhibitor of Apoptosis Proteins” (Journal of Medicinal Chemistry, 2023).
“Also recorded” adds a separate entry of the source. Read-outs that look alike come from different tables or passages of the source.

Legend:
XIAP = XIAP (Homo sapiens, UniProt P98170); assay: Immunoblotting (western blot) quantification of XIAP levels in MM.1S cells; design: Dmax: dose or concentration left out as unconfirmed
Sequence of XIAP (P98170 whole entry): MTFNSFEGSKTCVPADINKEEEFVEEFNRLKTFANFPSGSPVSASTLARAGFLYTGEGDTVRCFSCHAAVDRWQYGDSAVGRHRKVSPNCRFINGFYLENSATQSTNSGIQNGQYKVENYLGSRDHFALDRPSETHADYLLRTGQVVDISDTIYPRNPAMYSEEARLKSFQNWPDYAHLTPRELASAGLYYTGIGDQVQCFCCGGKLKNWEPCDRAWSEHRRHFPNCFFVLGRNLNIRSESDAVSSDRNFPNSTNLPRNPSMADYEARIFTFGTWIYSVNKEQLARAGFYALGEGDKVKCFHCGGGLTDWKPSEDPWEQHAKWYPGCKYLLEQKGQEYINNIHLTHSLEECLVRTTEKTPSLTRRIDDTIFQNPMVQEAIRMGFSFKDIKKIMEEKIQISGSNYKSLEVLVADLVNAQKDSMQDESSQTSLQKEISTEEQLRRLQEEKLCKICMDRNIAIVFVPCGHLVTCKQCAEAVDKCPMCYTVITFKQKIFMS

cIAP2 = cIAP2 (Homo sapiens, UniProt Q13489); assay: Immunoblotting (western blot) quantification of cIAP2 levels in MM.1S cells; design: Dmax: dose or concentration left out as unconfirmed
Sequence of cIAP2 (Q13489 whole entry): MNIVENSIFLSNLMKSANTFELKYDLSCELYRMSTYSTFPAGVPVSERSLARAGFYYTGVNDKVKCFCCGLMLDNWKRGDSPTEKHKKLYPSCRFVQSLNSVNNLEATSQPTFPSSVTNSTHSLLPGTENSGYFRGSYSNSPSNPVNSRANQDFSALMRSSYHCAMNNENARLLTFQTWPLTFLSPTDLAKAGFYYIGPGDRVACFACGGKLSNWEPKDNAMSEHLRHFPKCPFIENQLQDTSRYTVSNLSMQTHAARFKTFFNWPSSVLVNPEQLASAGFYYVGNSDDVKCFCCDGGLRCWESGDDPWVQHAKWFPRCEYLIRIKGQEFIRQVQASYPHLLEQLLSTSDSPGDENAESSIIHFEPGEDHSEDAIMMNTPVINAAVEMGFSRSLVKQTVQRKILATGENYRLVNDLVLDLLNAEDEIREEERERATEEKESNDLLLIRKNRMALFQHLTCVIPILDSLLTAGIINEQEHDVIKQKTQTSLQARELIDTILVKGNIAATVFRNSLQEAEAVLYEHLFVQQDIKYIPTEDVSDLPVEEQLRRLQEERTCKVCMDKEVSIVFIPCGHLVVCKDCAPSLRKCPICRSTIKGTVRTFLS

HEL = assay: CellTiter-Glo cell viability assay, HEL; assay type: cell-based; settings: Homo sapiens
Description: (§1) As TNF-α and related signaling cascades represent crucial factors for the single-agent activity of IAP-targeting compounds,[29],[38],[39],[55] the viability inhibition of sensitive cell lines was evaluated in the presence and absence of this inflammatory stimulus. […] These effects were independent of IAP baseline levels (Figure S16), which is in agreement with the previous studies of IAP antagonists.
(§2) Cells were seeded in 384-well plates with respective treatments, and plates were incubated at 37 °C for 96 h. Viability assays were performed with or without the addition of TNF-α at 1 ng/mL. The cell viability readout was measured using the CellTiter-Glo Luminescent Cell Viability Assay (Promega, Madison, USA) and measured with a Synergy LX Multi-Mode plate reader (BioTek, Vermont, USA). All conditions were normalized to the DMSO-treated control. Data represents the mean ± SD of biological triplicates.

SUDHL6 = assay: CellTiter-Glo cell viability assay, SUDHL6; assay type: cell-based; settings: Homo sapiens
Description: as §1, §2

K562 = assay: CellTiter-Glo cell viability assay, K562; assay type: cell-based; settings: Homo sapiens
Description: as §1, §2

SUDHL4 = assay: CellTiter-Glo cell viability assay, SUDHL4; assay type: cell-based; settings: Homo sapiens
Description: as §1, §2

cIAP1 (BIRC2) = target: T1, cIAP1 (BIRC2) (Homo sapiens, UniProt Q13490); assay: diaPASEF quantitative proteomics in MM.1S cells: cIAP1 (BIRC2); assay type: cell-based; settings: 3 h; for cIAP1 level in global proteomics (in words): 100 nM, diaPASEF
T1 construct: endogenous in cells; host or cells: MM.1S
T1 sequence (Q13490 whole entry): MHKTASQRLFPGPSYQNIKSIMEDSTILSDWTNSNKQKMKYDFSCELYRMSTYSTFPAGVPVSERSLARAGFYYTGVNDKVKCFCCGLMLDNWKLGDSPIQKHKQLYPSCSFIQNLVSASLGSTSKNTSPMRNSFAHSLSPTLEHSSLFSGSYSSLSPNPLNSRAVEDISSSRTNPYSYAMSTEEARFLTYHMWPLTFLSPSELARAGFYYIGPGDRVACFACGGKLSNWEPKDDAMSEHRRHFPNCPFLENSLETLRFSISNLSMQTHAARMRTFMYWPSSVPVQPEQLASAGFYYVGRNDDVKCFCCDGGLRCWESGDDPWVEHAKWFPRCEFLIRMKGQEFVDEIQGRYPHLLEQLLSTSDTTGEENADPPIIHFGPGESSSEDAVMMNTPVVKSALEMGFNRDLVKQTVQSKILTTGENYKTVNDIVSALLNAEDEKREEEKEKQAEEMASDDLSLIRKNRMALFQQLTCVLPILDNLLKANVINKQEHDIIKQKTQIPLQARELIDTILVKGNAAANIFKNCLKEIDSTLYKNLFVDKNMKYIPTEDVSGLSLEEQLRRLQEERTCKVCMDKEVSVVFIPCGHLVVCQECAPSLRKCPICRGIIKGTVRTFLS
Description: To analyze the proteome-wide degradation selectivity of hetero-PROTACs 9, 25, and 27, a diaPASEF-based mass spectrometry approach was employed.[54] MM.1S cells were treated with 100 nM PROTACs for 3 h. […] Accordingly, global proteomic plots show the mathematically imputed levels of IAP proteins in treatment groups if the corresponding IAP was detected in the control treatment (see also Experimental Section).
MM1s cells were treated with DMSO or 0.1 μM of compound for 3 h. The cells were harvested by centrifugation and washed with phosphate-buffered saline before snap-freezing in liquid nitrogen. The cells were lysed by addition of lysis buffer (8 M urea, 50 mM NaCl, 50 mM 4-(2-hydroxyethyl)-1-piperazine-ethanesulfonic acid (EPPS) pH 8.5, protease, and phosphatase inhibitors) and homogenization by bead beating (BioSpec) for three repeats of 30 s at 2400. Bradford assay was used to determine the final protein concentration in the clarified cell lysate. 50 μg of protein for each sample was reduced, alkylated, and precipitated using methanol/chloroform as previously described,[64] and the resulting washed precipitated protein was allowed to air dry. The precipitated protein was resuspended in 4 M urea, 50 mM HEPES pH 7.4, followed by dilution to 1 M urea with the addition of 200 mM EPPS, pH 8. Proteins were first digested with LysC (1:50; enzyme/protein) for 12 h at RT. The LysC digestion was diluted to 0.5 M urea with 200 mM EPPS pH 8, followed by digestion with trypsin (1:50; enzyme/protein) for 6 h at 37 °C. Sample digests were acidified with formic acid to a pH of 2–3 prior to desalting using C18 solid-phase extraction plates (SOLA, Thermo Fisher Scientific). Desalted peptides were dried in a vacuum centrifuge and reconstituted in 0.1% formic acid for LC–MS analysis.
Data were collected using a TimsTOF Pro2 (Bruker Daltonics, Bremen, Germany) coupled to a nanoElute LC pump (Bruker Daltonics, Bremen, Germany) via a CaptiveSpray nanoelectrospray source. Peptides were separated on a reversed-phase C18 column (25 cm × 75 μm ID, 1.6 μM, IonOpticks, Australia) containing an integrated captive spray emitter. Peptides were separated using a 50 min gradient of 2–30% buffer B (acetonitrile in 0.1% formic acid) with a flow rate of 250 nL/min and column temperature maintained at 50 °C.
Data-Dependent Acquisition (DDA) was performed in the Parallel Accumulation-Serial Fragmentation (PASEF) mode to determine effective ion mobility windows for downstream diaPASEF data collection.[54] The diaPASEF parameters included 100% duty cycle using accumulation and ramp times of 50 ms each, 1 TIMS-MS scan, and 10 PASEF ramps per acquisition cycle. The TIMS-MS survey scan was acquired between 100–1700 m/z and 1/K0 of 0.7–1.3 V × s/cm^2. Precursors with 1–5 charges were selected, and those that reached an intensity threshold of 20,000 arbitrary units were actively excluded for 0.4 min. The quadrupole isolation width was set to 2 m/z for m/z < 700 and 3 m/z for m/z > 800, with the m/z between 700 and 800 m/z being interpolated linearly. The TIMS elution voltages were calibrated linearly with three points (Agilent ESI-L Tuning Mix Ions; 622, 922, 1222 m/z) to determine the reduced ion mobility coefficients (1/K0). To perform diaPASEF, the precursor distribution in the DDA m/z-ion mobility plane was used to design an acquisition scheme for DIA data collection, which included two windows in each 50 ms diaPASEF scan. […]

JJN3 = assay: CellTiter-Glo cell viability assay, JJN3; assay type: cell-based; settings: Homo sapiens
Description: as §1, §2

[1] = MM1.S, 16 h, read-out: %remaining protein XIAP, MM.1S cells, 16 h treatment at 0.1 μM, normalized to loading control and DMSO
[2] = MM1.S, 16 h, read-out: %remaining protein cIAP2, MM.1S cells, 16 h treatment at 0.1 μM, normalized to loading control and DMSO
[3] = MM.1S cells, 16 h, western blot, 0.1 or 1 μM

With CN[C@@H](C)C(=O)N[C@H](C(=O)N1C[C@@H](Oc2cccc(OCCCCC(=O)N[C@H](C(=O)N3C[C@H](O)C[C@H]3C(=O)N[C@@H](C)c3ccc(-c4scnc4C)cc3)C(C)(C)C)c2)C[C@H]1C(=O)N[C@@H]1CCCc2ccccc21)C1CCCCC1 [PROTAC 9, (2S,4S)-1-((S)-2-Cyclohexyl-2-((S)-2-(methylamino)propanamido)acetyl)-4-(3-((5-(((S)-1-((2S,4R)-4-hydroxy-2-(((S)-1-(4-(4-methylthiazol-5-yl)phenyl)ethyl)carbamoyl)pyrrolidin-1-yl)-3,3-dimethyl-1-oxobutan-2-yl)amino)-5-oxopentyl)oxy)phenoxy)-N-((R)-1,2,3,4-tetrahydronaphthalen-1-yl)pyrrolidine-2-carboxamide] as the compound, how does the remaining activity at 0.1 µM (XIAP; [1]) read?
Its remaining activity at 0.1 µM is 7%.

And the Dmax (XIAP; MM1.S, read-out: Dmax XIAP (maximum degradation), MM.1S cells, 16 h)?
The Dmax was 99%.

And the “Dmax XIAP (maximum degradation)” value (XIAP; MM.1S cells, 16 h, at 0.1 μM)?
Its value is over 99%.

And the DC50 (XIAP; read-out: DC50,16h XIAP, MM.1S cells, 16 h, densitometric quantification of western blots, n = 4)?
The DC50 was 0.7 nM.

What about the remaining activity at 0.1 µM (cIAP2; [2]) of the same compound?
The remaining activity at 0.1 µM was 21%.

And the Dmax (cIAP2; MM1.S, read-out: Dmax cIAP2 (maximum degradation), MM.1S cells, 16 h)?
Its Dmax is 90%.

And the “Dmax cIAP2 (maximum degradation)” value (cIAP2; MM.1S cells, 16 h, at 0.1 μM)?
The value was over 90%.

And the DC50 (cIAP2; read-out: DC50,16h cIAP2, MM.1S cells, 16 h, densitometric quantification of western blots, n = 4)?
Its DC50 is 6.2 nM.

And the IC50 (HEL; HEL, AML cell line, 96 h, TNFα-challenged, read-out: IC50 cell viability HEL)?
Its IC50 is 1170 nM.

And the IC50 (SUDHL6; SU-DHL-6, DLBCL cell line, 96 h, TNFα-challenged, read-out: IC50 cell viability SUDHL6)?
The IC50 was 1.6 nM.

And the IC50 (K562; K562, AML cell line, 96 h, TNFα-challenged, read-out: IC50 cell viability K562)?
The IC50 was 420 nM.

And the IC50 (SUDHL4; SU-DHL-4, DLBCL cell line, 96 h, TNFα-challenged, read-out: IC50 cell viability SUDHL4)?
Its IC50 is 1690 nM.

What about the “cIAP1 level in global proteomics (in words)” value (shortened to “cIAP1 level”) (cIAP1 (BIRC2)) of the same compound?
The value was “below the detection level”.

And the IC50 (JJN3; JJN-3, MM cell line, 96 h, TNFα-challenged, read-out: IC50 cell viability JJN3)?
The IC50 was 1140 nM.

Which results are given for CN[C@@H](C)C(=O)N[C@@H](C(=O)N1CCC[C@H]1C(=O)N[C@@H]1c2ccccc2C[C@@H]1OCC#CC#CCO[C@H]1Cc2ccccc2[C@H]1NC(=O)[C@@H]1CCCN1C(=O)[C@H](NC(=O)[C@H](C)NC)C1CCCCC1)C1CCCCC1 [AZD5582, reference compound]?
XIAP degradation (in words) (XIAP; [3]): failed to degrade XIAP; also recorded: did not influence XIAP levels even at 1 μM; cIAP2 degradation (in words) (cIAP2; [3]): substantial degradation; IC50 (HEL; SI csv, head prints only the cell line, no quantity or unit, values parallel Table 1/S8, read-out: HEL): 64 nM; IC50 (SUDHL6; SU-DHL-6, SI csv, head prints only the cell line, no quantity or unit, values parallel Table 1/S8, read-out: SUDHL6): 1.5 nM; IC50 (K562; SI csv, head prints only the cell line, no quantity or unit, values parallel Table 1/S8, read-out: K562): 19 nM; IC50 (SUDHL4; SU-DHL-4, SI csv, head prints only the cell line, no quantity or unit, values parallel Table 1/S8, read-out: SUDHL4): 1640 nM; cIAP1 level in global proteomics (in words) (cIAP1 (BIRC2)): depleted cIAP1 below the detection level; IC50 (JJN3; JJN-3, SI csv, head prints only the cell line, no quantity or unit, values parallel Table 1/S8, read-out: JJN3): 200 nM

With CN[C@@H](C)C(=O)N[C@H](C(=O)N1C[C@@H](Oc2cccc(OCCOCCCCCCOCCCCCCNc3cccc4c3C(=O)N(C3CCC(=O)NC3=O)C4=O)c2)C[C@H]1C(=O)N[C@@H]1CCCc2ccccc21)C1CCCCC1 (stereo partly drawn) [PROTAC 25, (2S,4S)-1-((S)-2-Cyclohexyl-2-((S)-2-(methylamino)propanamido)acetyl)-4-(3-(2-((6-((6-((2-(2,6-dioxopiperidin-3-yl)-1,3-dioxoisoindolin-4-yl)amino)hexyl)oxy)hexyl)oxy)ethoxy)phenoxy)-N-((R)-1,2,3,4-tetrahydronaphthalen-1-yl)pyrrolidine-2-carboxamide] as the compound, how does the remaining activity at 0.1 µM (XIAP; MM1.S, 16 h, read-out: %remaining protein XIAP) read?
The remaining activity at 0.1 µM was 2%.

And the remaining activity at 0.1 µM (cIAP2; MM1.S, 16 h, read-out: %remaining protein cIAP2)?
Its remaining activity at 0.1 µM is 8%.

And the IC50 (HEL; HEL, read-out: HEL)?
Its IC50 is 300 nM.

And the IC50 (SUDHL6; SU-DHL-6, read-out: SUDHL6)?
The IC50 was 14 nM.

And the IC50 (K562; K562, read-out: K562)?
Its IC50 is 380 nM.

And the IC50 (SUDHL4; SU-DHL-4, read-out: SUDHL4)?
Its IC50 is 920 nM.

What about the “logFC BIRC2” value (cIAP1 (BIRC2); 0.1 μM, log2 fold change compound vs CTRLs (limma)) of the same compound?
The value was -2.352.

And the “cIAP1 level” value (cIAP1 (BIRC2))?
Its value is “below the detection level”.

And the IC50 (JJN3; JJN-3, read-out: JJN3)?
The IC50 was 180 nM.

With CN[C@@H](C)C(=O)N[C@H](C(=O)N1C[C@@H](Oc2cccc(OCCCCCCOCCCCCCOCCCCCCNc3cccc4c3C(=O)N(C3CCC(=O)NC3=O)C4=O)c2)C[C@H]1C(=O)N[C@@H]1CCCc2ccccc21)C1CCCCC1 (stereo partly drawn) [PROTAC 27, (2S,4S)-1-((S)-2-Cyclohexyl-2-((S)-2-(methylamino)propanamido)acetyl)-4-(3-((6-((6-((6-((2-(2,6-dioxopiperidin-3-yl)-1,3-dioxoisoindolin-4-yl)amino)hexyl)oxy)hexyl)oxy)hexyl)oxy)phenoxy)-N-((R)-1,2,3,4-tetrahydronaphthalen-1-yl)pyrrolidine-2-carboxamide] as the compound, how does the remaining activity at 0.1 µM (XIAP; [1]) read?
Its remaining activity at 0.1 µM is 8%.

And the remaining activity at 0.1 µM (cIAP2; [2])?
Its remaining activity at 0.1 µM is 46%.

And the “cIAP1 level” value (cIAP1 (BIRC2))?
The value was “no impact”.
